Data taken from US9815831B2, “3,5-disubstituted-3H-imidazo[4,5-B]pyridine and 3,5-disubstituted-3H-[1,2,3]triazolo[4,5-B] pyridine compounds as modulators of c-Met protein kinases” (Rhizen Pharmaceuticals SA, priority 2012, dated 2017).
Read-outs that look alike come from different tables or passages of the source.

Experiments:
MKN-45 = assay: Inhibition of MKN-45 proliferation (MTT); assay type: cell-based, human; conditions: Homo sapiens; for GI50: read-out: MKN45 GI50; for inhibition at 0.1 µM: 100 nM, read-out: MKN45 % inhibition @ 100 nM
Procedure: 3. Inhibition of MKN-45 Proliferation:
Cell proliferation assays were carried out using the high Met expressing human gastric adenocarcinoma cell line, MKN-45, according to the following schedule: • Day 1: Cells were plated in 96-well plates in complete growth medium. • Day 2: Compounds at desired concentrations were added. • Day 5: Cell viability was determined using the 3-[4,5-dimethylthiazol-2-yl]-2,5-diphenyltetrazolium bromide (MTT) dye reduction test. Results: The results are as given as % Inhibition of MKN-45 proliferation at 100 nM and GI50 values in Table 4A to 4C above. 4. Inhibition of c-Met Kinase Phosphorylation in MKN-45 Cells: […]

[1] = molecular target: T1, human recombinant Met kinase (Homo sapiens, UniProt P08581); assay: Colorimetric determination of c-Met kinase activity (HTScan Met Kinase Assay Kit); assay type: biochemical; conditions: read-out: c-Met Enzyme IC50
T1 construct: purchased Cell Signalling Technology, Beverly, Mass
T1 sequence (P08581 25-1390): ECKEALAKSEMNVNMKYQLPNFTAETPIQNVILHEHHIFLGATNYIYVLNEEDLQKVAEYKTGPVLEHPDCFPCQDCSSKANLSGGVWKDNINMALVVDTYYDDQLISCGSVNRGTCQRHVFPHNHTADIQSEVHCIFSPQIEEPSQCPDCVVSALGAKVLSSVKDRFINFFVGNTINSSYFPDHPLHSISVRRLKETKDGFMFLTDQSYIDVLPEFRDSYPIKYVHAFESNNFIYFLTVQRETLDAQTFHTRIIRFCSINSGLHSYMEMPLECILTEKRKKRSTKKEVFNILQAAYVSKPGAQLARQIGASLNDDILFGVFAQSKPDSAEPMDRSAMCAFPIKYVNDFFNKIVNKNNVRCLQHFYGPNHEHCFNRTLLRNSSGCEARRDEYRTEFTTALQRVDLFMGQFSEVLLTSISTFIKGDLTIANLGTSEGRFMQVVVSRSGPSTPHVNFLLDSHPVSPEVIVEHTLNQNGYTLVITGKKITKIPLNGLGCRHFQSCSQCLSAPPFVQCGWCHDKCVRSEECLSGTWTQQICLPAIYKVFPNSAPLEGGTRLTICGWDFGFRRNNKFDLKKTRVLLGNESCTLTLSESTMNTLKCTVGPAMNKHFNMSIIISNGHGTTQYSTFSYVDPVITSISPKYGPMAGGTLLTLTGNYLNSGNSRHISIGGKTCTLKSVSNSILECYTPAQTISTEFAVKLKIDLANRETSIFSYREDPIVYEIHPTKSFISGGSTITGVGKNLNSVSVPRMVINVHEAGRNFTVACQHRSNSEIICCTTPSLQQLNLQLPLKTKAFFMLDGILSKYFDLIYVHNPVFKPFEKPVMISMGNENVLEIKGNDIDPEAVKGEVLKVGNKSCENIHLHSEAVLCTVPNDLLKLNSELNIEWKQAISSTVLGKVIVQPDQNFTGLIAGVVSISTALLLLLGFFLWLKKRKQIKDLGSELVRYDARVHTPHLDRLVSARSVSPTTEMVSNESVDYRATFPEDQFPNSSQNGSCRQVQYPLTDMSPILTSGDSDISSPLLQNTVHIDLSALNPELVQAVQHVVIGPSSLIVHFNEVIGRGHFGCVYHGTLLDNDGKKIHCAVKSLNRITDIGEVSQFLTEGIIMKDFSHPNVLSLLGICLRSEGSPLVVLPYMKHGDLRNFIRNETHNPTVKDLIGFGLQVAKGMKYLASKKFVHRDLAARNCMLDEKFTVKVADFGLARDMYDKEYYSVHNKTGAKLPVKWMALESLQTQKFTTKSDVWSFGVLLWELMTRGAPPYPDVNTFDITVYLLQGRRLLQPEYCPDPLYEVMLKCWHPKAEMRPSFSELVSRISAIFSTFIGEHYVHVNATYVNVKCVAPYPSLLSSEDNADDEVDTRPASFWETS

[2] = molecular target: T1, human recombinant Met kinase; assay: as above; assay type: biochemical; conditions: for inhibition: cells marked *: tested @ 300 nM, read-out: c-Met Enzyme % inhibition; for inhibition at 0.1 µM: 100 nM (cells without *), read-out: c-Met Enzyme % inhibition @ 100 nM
Text: 1. MET Kinase Assay Protocol:
Colorimetric Determination of c-Met Kinase Activity
The receptor tyrosine kinase c-Met is a heterodimeric transmembrane glycoprotein involved in several cellular processes that aid in tumor progression. Phosphorylation of the tyrosine residues in the c-Met kinase domain is critical for its activity and the resulting down-stream effects. The colorimetric assay allows detection of the phosphorylated form of a biotinylated peptide upon activation of human recombinant Met kinase.
MET Kinase Assay Protocol:
c-Met Kinase activity shall be determined using an HTScan® Met Kinase Assay Kit (Cell Signalling Technology, Beverly, Mass.) with modifications. All incubations are carried out at room temperature. Briefly, 12.5 μl of a 4× reaction cocktail (DTT/Kinase buffer containing appropriate quantity of human Met kinase) is added to each well of a 96-well plate containing 12.5 μl pre-diluted compound of interest and incubated for 5 minutes. After the initial incubation, 25 μl/well of 2×ATP/biotinylated peptide is added and incubated for an additional 30 minutes. The reaction is terminated by the addition of 50 μl/well stop buffer (50 mM EDTA, pH 8.0). The reaction mixture (25 μl/well) is then transferred to a streptavidin coated plate (Perkin Elmer, Cat#4009-0010) containing 75 μl dH2O and incubated for 60 minutes. The plate is washed with 200 μl/well wash buffer (1×PBS, 0.05% Tween-20). After washing, 100 μl/well phospho-tyrosine mAb (1:1000 in wash buffer containing 1% BSA) is added and incubated for 60 minutes. After another round of washes, 100 μl/well europium labelled anti-mouse IgG (1:500 in wash buffer containing 1% BSA) is added and incubated for an additional 30 minutes. Following additional washes, 100 μl/well Delfia^(R) enhancement solution (Perkin Elmer, Cat#1244-105) is added and incubated for 45 minutes. Florescence is measured on a microplate reader (BMG Labtech., Germany) at 340 nm (excitation) and 615 nm (emission) for calculating % inhibition. Data generated can be analyzed further using Graphpad Prism (Graphpad software, San Diego Calif.) for determination of IC50.
Results: The results are as given below in Table 4A, 4B and 4C as % Inhibition or IC50 of c-Met

[3] = MKN-45, Table 4A, MKN-45 proliferation
[4] = MKN-45, Table 4C, MKN-45 proliferation
[5] = MKN-45, Table 4B, MKN-45 proliferation

CC(=NO)c1ccc2nnn(Cc3cc4cccnc4cc3F)c2n1 [Example 59, 1-(3-((7-fluoroquinolin-6-yl)methyl)-3H-[1,2,3]triazolo[4,5-b]pyridin-5-yl) ethanone oxime]
GI50 (MKN-45; [3]): 25 to 50 nM | IC50 ([1]; Table 4A): 25 to 50 nM

NC(=O)c1c(F)cc(-c2ccc3nnn(Cc4cc5cccnc5cc4F)c3n2)cc1F [Example 1007, 2,6-difluoro-4-(3-((7-fluoroquinolin-6-yl)methyl)-3H-[1,2,3]triazolo[4,5-b]pyridin-5-yl)benzamide]
inhibition at 0.1 µM (MKN-45; [4]): 75 to 100% | GI50 (MKN-45; [4]): < 25 nM | IC50 ([1]; Table 4C): < 25 nM

CNC(=O)CCNC(=O)c1ccc(-c2ccc3nnn(Cc4ccc5ncccc5c4)c3n2)cc1 [Example 4, N-(3-(methylamino)-3-oxopropyl)-4-(3-(quinolin-6-ylmethyl)-3H-[1,2,3]triazolo[4,5-b]pyridin-5-yl)benzamide]
GI50 (MKN-45; [3]): 250 to 1000 nM | inhibition ([2]; Table 4A): 75 to 100%

CCOC(=O)CONC(=O)c1ccc(-c2ccc3nnn(Cc4ccc5ncccc5c4)c3n2)cc1Cl [Example 29, ethyl 2-(2-chloro-4-(3-(quinolin-6-ylmethyl)-3H-[1,2,3]triazolo[4,5-b]pyridin-5-yl)benzamidooxy)acetate]
inhibition at 0.1 µM (MKN-45; [3]): < 25% | GI50 (MKN-45; [3]): 100 to 250 nM | inhibition at 0.1 µM ([2]; Table 4A): 75 to 100%

CNC(=O)c1ccc(-c2ccc3ncn(Cc4ccc5ncccc5c4)c3n2)cc1Cl [Example 1017, 2-chloro-N-methyl-4-(3-(quinolin-6-ylmethyl)-3H-imidazo[4,5-b]pyridin-5-yl)benzamide]
inhibition at 0.1 µM (MKN-45; [4]): < 25% | inhibition ([2]; Table 4C): 25 to 50%

Cc1cc(-c2ccc3ncn(Cc4ccc5ncccc5c4)c3n2)ccc1C(=O)NOCCO [Example 111, N-(2-Hydroxy-ethoxy)-2-methyl-4-(3-quinolin-6-ylmethyl-3H-imidazo[4,5-b]pyridin-5-yl)-benzamide]
inhibition at 0.1 µM (MKN-45; [5]): < 25% | inhibition at 0.1 µM ([2]; Table 4B): 75 to 100%

NC(=O)c1ccc(-c2ccc3ncn(Cc4c(F)cc5ncccc5c4F)c3n2)cc1C(F)(F)F [Example 1028, 4-[3-(5,7-Difluoro-quinolin-6-ylmethyl)-3H-imidazo[4,5-b]pyridin-5-yl]-2-trifluoromethyl-benzamide]
inhibition at 0.1 µM (MKN-45; [4]): 75 to 100% | inhibition at 0.1 µM ([2]; Table 4C): 75 to 100%

Cc1cc(-c2ccc3nnn(Cc4ccc5ncccc5c4)c3n2)ccc1C(=O)NOC(C)(C)CO [Example 39, N-(1-hydroxy-2-methylpropan-2-yloxy)-2-methyl-4-(3-(quinolin-6-ylmethyl)-3H-[1,2,3]triazolo[4,5-b]pyridin-5-yl)benzamide]
inhibition at 0.1 µM (MKN-45; [3]): 75 to 100% | inhibition at 0.1 µM ([2]; Table 4A): 75 to 100%

CC(c1ccc2ncccc2c1)n1cnc2ccc(-c3ccc(C(N)=O)c(Cl)c3)nc21 (stereo not drawn) [Example 1021, 2-chloro-4-(3-(1-(quinolin-6-yl)ethyl)-3H-imidazo[4,5-b]pyridin-5-yl)benzamide]
inhibition at 0.1 µM (MKN-45; [4]): 25 to 50% | inhibition ([2]; Table 4C): < 25%

NC(=O)CCNC(=O)c1ccc(-c2ccc3nnn(Cc4ccc5ncccc5c4)c3n2)cc1 [Example 3, N-(3-amino-3-oxopropyl)-4-(3-(quinolin-6-ylmethyl)-3H-[1,2,3]triazolo[4,5-b]pyridin-5-yl)benzamide]
GI50 (MKN-45; [3]): 100 to 250 nM | inhibition ([2]; Table 4A): 50 to 75%

O=C(NOCCO)c1ccc(-c2ccc3nnn(Cc4ccc5ncccc5c4)c3n2)cc1C(F)(F)F [Example 23, N-(2-hydroxyethoxy)-4-(3-(quinolin-6-ylmethyl)-3H-[1,2,3]triazolo[4,5-b]pyridin-5-yl)-2-(trifluoromethyl)benzamide]
inhibition at 0.1 µM (MKN-45; [3]): 75 to 100% | GI50 (MKN-45; [3]): 50 to 100 nM | inhibition at 0.1 µM ([2]; Table 4A): 75 to 100%

C/C(=N\OCCO)c1ccc2nnn(Cc3ccc4ncccc4c3)c2n1 [Example 62, 1-(3-(quinolin-6-ylmethyl)-3H-[1,2,3]triazolo[4,5-b]pyridin-5-yl)ethanone O-2-hydroxyethyl oxime]
inhibition at 0.1 µM (MKN-45; [3]): < 25% | inhibition ([2]; Table 4A): < 25%

Cc1cc(-c2ccc3nnn(Cc4cc5cccnc5cc4F)c3n2)ccc1C(=O)NOCCO [Example 26, 4-(3-((7-fluoroquinolin-6-yl)methyl)-3H-[1,2,3]triazolo[4,5-b]pyridin-5-yl)-N-(2-hydroxyethoxy)-2-methylbenzamide]
inhibition at 0.1 µM (MKN-45; [3]): 75 to 100% | GI50 (MKN-45; [3]): 25 to 50 nM | inhibition at 0.1 µM ([2]; Table 4A): 75 to 100%

CC(C)(O)CONC(=O)c1c(F)cc(-c2ccc3nnn(Cc4ccc5ncccc5c4)c3n2)cc1F [Example 34, 2,6-difluoro-N-(2-hydroxy-2-methylpropoxy)-4-(3-(quinolin-6-ylmethyl)-3H-[1,2,3]triazolo[4,5-b]pyridin-5-yl)benzamide]
inhibition at 0.1 µM (MKN-45; [3]): 75 to 100% | GI50 (MKN-45; [3]): 25 to 50 nM | inhibition at 0.1 µM ([2]; Table 4A): 75 to 100%

Cc1nc2ccc(-c3ccc(C(N)=O)c(Cl)c3)nc2n1Cc1ccc2ncccc2c1 [Example 1020, 2-chloro-4-(2-methyl-3-(quinolin-6-ylmethyl)-3H-imidazo[4,5-b]pyridin-5-yl)benzamide]
inhibition at 0.1 µM (MKN-45; [4]): 50 to 75% | inhibition ([2]; Table 4C): < 25%

COC(=O)N/N=C(\C)c1ccc2nnn(Cc3ccc4ncccc4c3)c2n1 [Example 58, Methyl 2-(1-(3-(quinolin-6-ylmethyl)-3H-[1,2,3]triazolo[4,5-b]pyridin-5-yl)ethylidene)hydrazinecarboxylate]
inhibition at 0.1 µM (MKN-45; [3]): 25 to 50% | inhibition ([2]; Table 4A): < 25%

Cc1cc(-c2ccc3ncn(Cc4ccc5ncccc5c4)c3n2)ccc1C(N)=O [Example 1018, 2-methyl-4-(3-(quinolin-6-ylmethyl)-3H-imidazo[4,5-b]pyridin-5-yl) benzamide]
inhibition at 0.1 µM (MKN-45; [4]): 25 to 50% | inhibition ([2]; Table 4C): 50 to 75%

Cc1cc(-c2ccc3ncn(Cc4ccc5ncccc5c4)c3n2)ccc1C(=O)NOCC(C)(C)O [Example 112, N-(2-Hydroxy-2-methyl-propoxy)-2-methyl-4-(3-quinolin-6-ylmethyl-3H-imidazo[4,5-b]pyridin-5-yl)-benzamide]
inhibition at 0.1 µM (MKN-45; [5]): < 25% | inhibition at 0.1 µM ([2]; Table 4B): 75 to 100%

NC(=O)CNC(=O)c1ccc(-c2ccc3nnn(Cc4ccc5cccnc5c4)c3n2)cc1 [Example 1, N-(2-amino-2-oxoethyl)-4-(3-(quinolin-7-ylmethyl)-3H-[1,2,3]triazolo[4,5-b]pyridin-5-yl) benzamide]
inhibition at 0.1 µM (MKN-45; MKN-45, Table 4A, cell printed as a number, not a class letter): 0% | inhibition at 0.1 µM ([2]; Table 4A): 75 to 100%

CC(C)(O)CONC(=O)c1ccc(-c2ccc3nnn(Cc4ccc5ncccc5c4)c3n2)cc1F [Example 35, 2-fluoro-N-(2-hydroxy-2-methylpropoxy)-4-(3-(quinolin-6-ylmethyl)-3H-[1,2,3]triazolo[4,5-b]pyridin-5-yl)benzamide]
inhibition at 0.1 µM (MKN-45; [3]): 75 to 100% | GI50 (MKN-45; [3]): 25 to 50 nM | inhibition at 0.1 µM ([2]; Table 4A): 75 to 100%

O=C(NOCCO)c1ccc(-c2ccc3nnn(Cc4cc5cccnc5cc4F)c3n2)cc1C(F)(F)F [Example 24, 4-(3-((7-fluoroquinolin-6-yl)methyl)-3H-[1,2,3]triazolo[4,5-b]pyridin-5-yl)-N-(2-hydroxyethoxy)-2-(trifluoromethyl)benzamide]
inhibition at 0.1 µM (MKN-45; [3]): 75 to 100% | GI50 (MKN-45; [3]): 25 to 50 nM | inhibition at 0.1 µM ([2]; Table 4A): 75 to 100%

CCNC(=O)c1c(F)cc(-c2ccc3ncn(Cc4ccc5ncccc5c4)c3n2)cc1F [Example 1016, N-ethyl-2,6-difluoro-4-(3-(quinolin-6-ylmethyl)-3H-imidazo[4,5-b]pyridin-5-yl)benzamide]
inhibition at 0.1 µM (MKN-45; [4]): < 25% | inhibition ([2]; Table 4C): 25 to 50%
